According to the NIST ThermoML archive (doi:10.1016/j.jct.2006.03.014):

Assay: xn = mol fraction of the nth substance listed
Conditions: 101 kPa, Liquid; for viscosity: Capillary tube (Ostwald / Ubbelohde) method; for mass density: Pycnometric method

CC1OC(C)OC(C)O1 (configuration not stated) [2,4,6-trimethyl-1,3,5-trioxane] + COC(C)=O
Conditions	mass density, 298.15 K [kg/m3]	mass density, 303.15 K [kg/m3]	mass density, 308.15 K [kg/m3]	viscosity, 298.15 K [mPa·s]	viscosity, 303.15 K [mPa·s]	viscosity, 308.15 K [mPa·s]
x1 = 0.0203	928.4	921.5	918	0.378	0.359	0.345
x1 = 0.0405	930.1	923.3	919.7	0.388	0.367	0.35
x1 = 0.0601	931.8	925	921.4	0.398	0.373	0.355
x1 = 0.0807	933.4	926.7	923.1	0.408	0.38	0.359
x1 = 0.1002	935	928.4	924.7	0.416	0.386	0.362
x1 = 0.201	942.9	936.6	932.6	0.455	0.41	0.372
x1 = 0.3009	950.3	944.2	939.8	0.489	0.429	0.374
x1 = 0.397	956.9	951	946.3	0.522	0.45	0.377
x1 = 0.5001	963.5	957.7	952.7	0.566	0.481	0.39
x1 = 0.7002	974.8	969.1	963.5	0.696	0.593	0.479
x1 = 0.8005	979.8	974	968.2	0.795	0.688	0.57
x1 = 0.9001	984.3	978.5	972.5	0.925	0.816	0.704
x1 = 1	988.4	982.6	976.4	1.107	1.001	0.907

CC1OC(C)OC(C)O1 (configuration not stated) [2,4,6-trimethyl-1,3,5-trioxane] + CCCCOC(C)=O
Conditions	mass density, 298.15 K [kg/m3]	mass density, 303.15 K [kg/m3]	mass density, 308.15 K [kg/m3]	viscosity, 298.15 K [mPa·s]	viscosity, 303.15 K [mPa·s]	viscosity, 308.15 K [mPa·s]
x1 = 0.0186	878.3	873.2	868.2	0.688	0.637	0.581
x1 = 0.0368	880.3	875.1	870.1	0.693	0.641	0.586
x1 = 0.0556	882.3	877.1	872	0.696	0.646	0.588
x1 = 0.0744	884.3	879.1	874	0.697	0.65	0.592
x1 = 0.093	886.3	881	875.9	0.699	0.653	0.594
x1 = 0.1873	896.5	891.1	885.7	0.713	0.668	0.612
x1 = 0.2831	906.9	901.4	895.9	0.728	0.685	0.629
x1 = 0.3807	917.7	912	906.4	0.755	0.706	0.649
x1 = 0.4799	928.6	922.9	917.2	0.786	0.735	0.676
x1 = 0.5802	939.8	934.1	928.2	0.831	0.771	0.708
x1 = 0.6828	951.5	945.7	939.7	0.882	0.816	0.746
x1 = 0.7863	963.2	957.6	951.4	0.945	0.867	0.793
x1 = 0.8924	975.6	969.9	963.7	1.025	0.933	0.848
x1 = 1	988.4	982.6	976.4	1.107	1.001	0.907
